The source of these data is patent US20030134880A1, “Novel cd23 inhibitors” (priority 2000, published 2003).

The target of the experiment is T1, human recombinant collagenase (Homo sapiens, UniProt P03956).
T1 construct: made in house; host or cells: E. coli
T1 sequence (P03956 100-469): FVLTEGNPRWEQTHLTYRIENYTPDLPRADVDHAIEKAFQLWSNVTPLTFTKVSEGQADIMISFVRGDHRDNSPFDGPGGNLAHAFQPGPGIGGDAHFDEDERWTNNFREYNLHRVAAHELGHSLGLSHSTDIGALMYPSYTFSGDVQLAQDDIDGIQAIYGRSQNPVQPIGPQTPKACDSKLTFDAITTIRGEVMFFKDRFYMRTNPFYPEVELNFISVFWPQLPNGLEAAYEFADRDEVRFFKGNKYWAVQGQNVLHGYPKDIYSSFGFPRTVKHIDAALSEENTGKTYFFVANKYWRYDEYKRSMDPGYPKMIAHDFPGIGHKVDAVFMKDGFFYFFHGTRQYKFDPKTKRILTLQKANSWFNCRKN
Put plainly: Collagenase inhibition assay. It counts as biochemical. To be noted: acetylated 3H type 1 bovine collagen, 37° C., 18 h. How it is done: Procedure 2: The ability of test compounds to inhibit collagenase was investigated using the following procedure.
Collagenase Inhibition Assay:
The potency of compounds to act as inhibitors of collagenase was determined by the method of Cawston and Barrett (Anal. Biochem. 99, 340-345, 1979), hereby incorporated by reference, whereby a 1 mM solution of the inhibitor being tested or dilutions thereof, was incubated at 37° C. for 18 h with collagen and human recombinant collagenase, from synovial fibroblasts cloned, expressed and purified from E. Coli, (buffered with 150 mM Tris, pH 7.6. containing 15 mM calcium chloride, 0.05% Brij 35.200 mM sodium chloride and 0.02% sodium azide). The collagen was acetylated ^3H type 1 bovine collagen prepared by the method of Cawston and Murphy (methods in Enzymology 80. 711,1981) The samples were centrifuged to sediment undigested collagen and an aliquot of the radioactive supernatant removed for assay on a scintillation counter as a measure of hydrolysis. The collagenase activity in the presence of 1 mM inhibitor, or dilution thereof, was compared to activity in a control devoid of inhibitor and the results reported as that concentration effecting 50% of the collagenase (IC50).

Molecules are shown by their SMILES.

Take `O=C(NO)C(c1ccccc1)N(Cc1cccnc1)S(=O)(=O)Cc1ccc2sccc2c1` (racemic) [Example 2, (R,S)-2-[(Benzo[b]thiophen-5-ylmethanesulfonyl)(pyridin-3-ylmethyl)-amino]-N-hydroxy-2-phenylacetamide]: the IC50 is at most 10 µM.

As to `COCCOCCN([C@@H](C(=O)NO)c1ccccc1)S(=O)(=O)Cc1ccc2sccc2c1` [Example 1, (R)-2-{(Benzo[b]thiophen-5-ylmethanesulfonyl)[2-(2-methoxyethoxy)-ethyl]amino}-N-hydroxy-2-phenylacetamide], the IC50 was at most 10 µM.

As to `CC(C)C[C@H](C(=O)NO)N(Cc1cccnc1)S(=O)(=O)Cc1ccc2sccc2c1` [Example 8], the IC50 was at most 10 µM.

With `O=C(NO)[C@@H](C1CCCCC1)N(Cc1ccco1)S(=O)(=O)Cc1ccc2sccc2c1` [Example 14, (R)-2-[(Benzo[b]thiophen-5-ylmethanesulfonyl)(furan-2-ylmethyl)-amino]-2-cyclohexyl-N-hydroxy-acetamide], the IC50 is at most 10 µM.

Broadly, the IC50 is the concentration that gives 50% inhibition.
